Data published in publication PMC7253571, “Cucurbitane-Type Triterpene Glycosides from Momordica charantia and Their α-Glucosidase Inhibitory Activities” (Natural Products and Bioprospecting, 2020).

Molecular target: α-glucosidase
Experiment: α-glucosidase inhibition assay (PNPG substrate, absorbance at 405 nm)
Assay type: biochemical
Conditions: substrate PNPG 2.5 mM, enzyme 1.0 U/mL, PPBS pH 6.86, 37 °C, triplicate; read-out: α-Glucosidase inhibitory activity IC50
Procedure: UV spectra were recorded on a UV-2401PC spectrometer (Shimadzu, Kyoto, Japan). Optical rotations were measured in methanol on JASCO P-1020 digital polarimeter (Jasco, Tokyo, Japan). IR spectra were scanned on a Bruker Tensor-27 Fourier transform infrared spectrometer with KBr pellets (Bruker, German). High-resolution (HR) ESI mass spectra data were measured on a Waters API QSTAR Pulsar spectrometer. 1D and 2D NMR spectra were obtained in pyridine-d5 on Bruker Ascend-400, 600 and 800 MHz NMR spectrometers with tetramethylsilane (TMS) as internal standard (Bruker, Zurich, Switzerland). Column chromatography (CC) was performed on macroporous resin (D-101, Tianjin, China), Lichroprep RP-18 (Merck, German), sephadex LH-20 (Pharmacia, USA), silica gel (200–300 mesh, Qingdao, China), and Semi-preparative HPLC was performed on an Agilent 1260 liquid chromatography system equipped with a ZORBAX SB-C18 column (5 μm, 9.4 × 250 mm, 3.0 mL/min) and a DAD detector. Fractions were detected by TLC, and spots were visualized by spraying with 10% H2SO4 in EtOH, followed by heating. α-glucosidase inhibitory activity was evaluated on the basis of the ability of the compounds to decrease glucosidase activity and then inhibit the breaking of glycosidic bonds in p-nitrophenyl-α-D-glucopyranoside (PNPG). Water was purchased from wahaha group co. LTD. Acetonitrile (chromatographic grade) was purchased from OCEANPAK (Sweden). Common organic solvents are industrial grade, used after re-distillation. PNPG was obtained from Sigma Chemical Co. (St. Louis, Mo, USA). α-glucosidase was purchased from Shanghai yuanye biotechnology Co., Ltd. Potassium phosphate buffer solution (PPBS) was obtained from Shanghai Yidian Scientific Instrument Co., Ltd. 96-well plates was purchased from Nest biotechnology co., LTD.
The α-glucosidase inhibition assay was performed according to the method adapted from the literature with slight modifications. α-glucosidase can cut glycosidic bonds in the PNPG to produce 4-nitrophenol (yellow), then measured its absorbance can determine the activity of enzyme. The test samples and ursolic acid (positive control) were dissolved in dimethylsulfoxide (DMSO), and then diluted with PPBS (pH 6.86) to the required concentration. The α-glucosidase (1.0 U/mL) and substrate (PNPG, 2.5 mM) were dissolved in PPBS. Sample wells included 60 μL of PPBS, 10 μL of test substances, 30 μL of enzyme stock solution, and incubated at 37 °C for 10 min. After the pre-incubation phase, 40 μL of PNPG solution was added and the mixture was incubated for another 20 min at 37 °C. Finally, 80 μL Na2CO3 (0.2 M) solution was added to the sample wells to stop the reaction. The absorbance of the reaction mixture was recorded at 405 nm using a microplate reader. All samples were measured in triplicate. The inhibition rate (%) was calculated by the following formula: Inhibition (%) = [1 − (Asample/Acontrol)] × 100.

Question: Which IC50 does the source give for `COC(C=C(C)C)CC(C)C1CCC2(C)C3C=CC45OC(OC)C3(CCC12C)C4CCC(OC1OC(CO)C(O)C(O)C1O)C5(C)C` [Compound 1, (19S,23R)-5β,19-epoxy-19,23-dimethoxycucurbita-6,24-dien-3β-ol 3-O-β-D-allopyranoside] here?
Answer: Its IC50 is over 100 µM.

Question: With `COC(C=C(C)C)CC(C)C1CCC2(C)C3C=CC45OC(OC)C3(CCC12C)C4CCC(OC1OC(CO)C(O)C(O)C1O)C5(C)C` [Compound 2, (19S,23R)-5β,19-epoxy-19,23-dimethoxycucurbita-6,24-dien-3β-ol 3-O-β-D-glucopyranoside] as the compound, how does the IC50 read?
Answer: The IC50 was 63.3 ± 3.04 µM.

Question: With `CO[C@H]1O[C@]23C=C[C@@H]4[C@@]1(CC[C@]1(C)[C@@H]([C@H](C)C[C@@H](C=C(C)C)OC)CC[C@@]41C)C2CC[C@H](O[C@@H]1O[C@H](CO)[C@@H](O)[C@@H](O)[C@H]1O)C3(C)C` (stereo partly drawn) [Compound 3, (19S,23S)-5β,19-epoxy-19,23-dimethoxycucurbita-6,24-dien-3β-ol 3-O-β-D-allopyranoside] as the compound, how does the IC50 read?
Answer: Its IC50 is over 100 µM.

Question: `CC(C)=CC=CC(C)C1CCC2(C)C3C=CC45OCC3(CCC12C)C4CCC(OC1OC(CO)C(O)C(O)C1O)C5(C)C` [Compound 4, 5β,19-epoxy-cucurbita-6,22E,24-trien-3β-ol 3-O-β-D-allopyranoside] was tested. Which IC50 did it give?
Answer: The IC50 was over 100 µM.

Question: With `COC1OC23C=CC4C1(CCC1(C)C(C(C)CC=CC(C)(C)O)CCC41C)C2CCC(OC1OC(CO)C(O)C(O)C1O)C3(C)C` [Compound 5, 19(S)-methoxy-5β,19-epoxycucurbita-6,23-dien-3β,25-diol 3-O-β-D-glucopyranoside] as the compound, how does the IC50 read?
Answer: Its IC50 is 59.1 ± 4.67 µM.

Question: For `C=C(C)/C=C/C[C@@H](C)[C@H]1CC[C@@]2(C)[C@@H]3C=C[C@@]45O[C@@H](OC)[C@]3(CC[C@]12C)C4CC[C@H](O[C@@H]1O[C@H](CO)[C@@H](O)[C@@H](O)[C@H]1O)C5(C)C` (stereo partly drawn) [Compound 6, (19R,23E)-5β,19-epoxy-19-methoxycucurbita-6,23,25-trien-3β-ol 3-O-β-D-allopyranoside], which IC50 is on record?
Answer: The IC50 was over 100 µM.

Question: With `C=C(C)/C=C/C[C@@H](C)[C@H]1CC[C@@]2(C)[C@@H]3C=C[C@@]45O[C@@H](OC)[C@]3(CC[C@]12C)[C@@H]4CC[C@H](O[C@@H]1O[C@H](CO)[C@@H](O)[C@H](O)[C@H]1O)C5(C)C` [Compound 7, charantoside I] as the compound, how does the IC50 read?
Answer: The IC50 was 35.1 ± 4.15 µM.

Question: `C=C(C)/C=C/C[C@@H](C)[C@H]1CC[C@@]2(C)[C@@H]3C=C[C@@]45OC[C@]3(CC[C@]12C)[C@@H]4CC[C@H](O[C@@H]1O[C@H](CO)[C@@H](O)[C@H](O)[C@H]1O)C5(C)C` [Compound 8, charantoside III] was tested. Which IC50 did it give?
Answer: Its IC50 is 36.4 ± 3.03 µM.

Question: How did the IC50 turn out when `COC(C)(C)/C=C/C[C@@H](C)[C@H]1CC[C@@]2(C)[C@@H]3[C@@H](O[C@@H]4O[C@H](CO)[C@@H](O)[C@H](O)[C@H]4O)C=C4C(CC[C@H](O)C4(C)C)[C@]3(C=O)CC[C@]12C` (stereo partly shown) [Compound 9, momordicoside K] was run?
Answer: The IC50 was 28.4 ± 2.08 µM.

Question: How did the IC50 turn out when `CO[C@H]1C=C2C(CC[C@H](O[C@@H]3O[C@H](CO)[C@@H](O)[C@@H](O)[C@H]3O)C2(C)C)[C@]2(C=O)CC[C@]3(C)[C@@H]([C@H](C)C/C=C/C(C)(C)OC)CC[C@@]3(C)[C@H]12` (stereo partly drawn) [Compound 10, 7β,25-dimethoxycucurbita-5(6),23(E)-dien-19-al 3-O-β-D-allopyranoside] was run?
Answer: The IC50 was over 100 µM.
